The source made the active and inactive calls. The calls are words filed in the database; no cut-off is given here.
Tested on: not listed separately
Assay: Metabolic stability in mouse liver microsomes assessed as intrinsic clearance measured up to 120 mins by LC-MS/MS analysis
Format: ADME, Microsome
Details: read-out: CLH

SMILES | CLint scaled [mL/min/kg]
CNC(=O)c1cnc(Nc2ccc(C(=O)NCCCCNc3cccc4c3C(=O)N(C3CCC(=O)NC3=O)C4=O)cn2)cc1Nc1cccc(-c2ncc(F)cn2)c1OC (stereo unspecified) | 228

Tested on: not listed separately
Assay: Metabolic stability in mouse liver microsomes assessed as half life measured up to 120 mins by LC-MS/MS analysis
Format: ADME, Microsome
Details: not given

SMILES | half-life [min]
CNC(=O)c1cnc(NC2CCN(CC3CCN(c4ccc5c(c4)C(=O)N(C4CCC(=O)NC4=O)C5=O)CC3)CC2)cc1Nc1cccc(-c2ncc(F)cn2)c1OC (stereo unspecified) | 62
CNC(=O)c1cnc(Nc2ccc(C(=O)NCCCCNc3cccc4c3C(=O)N(C3CCC(=O)NC3=O)C4=O)cn2)cc1Nc1cccc(-c2ncc(F)cn2)c1OC (stereo unspecified) | 24

Target: T1, Protein cereblon/Non-receptor tyrosine-protein kinase TYK2 (Homo sapiens, UniProt P29597+Q96SW2)
Assay: PROTAC activity at CRBN/TYK2 in human Jurkat cells assessed as induction of degradation of TYK2 at 10 nM measured after 10 hrs by Western blot analysis relative to control
Format: cell-based
Details: not given
Target sequence in this assay (P29597 whole entry, looked up): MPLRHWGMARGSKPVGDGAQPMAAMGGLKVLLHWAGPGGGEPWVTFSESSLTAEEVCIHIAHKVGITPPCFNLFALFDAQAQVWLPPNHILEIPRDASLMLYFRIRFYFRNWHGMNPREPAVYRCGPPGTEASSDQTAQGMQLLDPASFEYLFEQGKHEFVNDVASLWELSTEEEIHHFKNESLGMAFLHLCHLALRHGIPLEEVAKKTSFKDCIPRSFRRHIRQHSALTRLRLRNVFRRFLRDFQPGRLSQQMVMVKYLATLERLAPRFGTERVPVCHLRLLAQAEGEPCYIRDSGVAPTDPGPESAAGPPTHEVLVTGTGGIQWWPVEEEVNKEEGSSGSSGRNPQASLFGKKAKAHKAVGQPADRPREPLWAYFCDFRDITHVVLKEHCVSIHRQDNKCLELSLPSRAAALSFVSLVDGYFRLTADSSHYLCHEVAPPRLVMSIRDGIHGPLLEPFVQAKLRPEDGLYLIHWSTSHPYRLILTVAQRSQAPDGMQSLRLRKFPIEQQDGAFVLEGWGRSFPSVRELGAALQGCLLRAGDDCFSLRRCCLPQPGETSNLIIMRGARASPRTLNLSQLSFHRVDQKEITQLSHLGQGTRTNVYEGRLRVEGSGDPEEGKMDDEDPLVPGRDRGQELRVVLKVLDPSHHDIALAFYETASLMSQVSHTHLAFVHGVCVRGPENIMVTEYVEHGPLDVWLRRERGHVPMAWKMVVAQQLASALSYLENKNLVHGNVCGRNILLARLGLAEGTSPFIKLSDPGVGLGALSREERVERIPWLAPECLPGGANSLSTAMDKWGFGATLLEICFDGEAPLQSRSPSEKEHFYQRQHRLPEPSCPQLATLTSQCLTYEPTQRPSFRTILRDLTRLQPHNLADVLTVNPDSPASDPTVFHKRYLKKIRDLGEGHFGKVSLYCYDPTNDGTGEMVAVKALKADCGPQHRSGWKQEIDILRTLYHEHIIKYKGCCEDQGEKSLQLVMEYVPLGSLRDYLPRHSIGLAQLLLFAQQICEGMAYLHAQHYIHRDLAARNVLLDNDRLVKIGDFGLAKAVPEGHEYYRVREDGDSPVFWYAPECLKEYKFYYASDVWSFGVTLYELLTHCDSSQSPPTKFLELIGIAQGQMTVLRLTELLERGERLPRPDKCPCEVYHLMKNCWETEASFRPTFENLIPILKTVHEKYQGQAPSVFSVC
Target sequence in this assay (Q96SW2 whole entry, looked up): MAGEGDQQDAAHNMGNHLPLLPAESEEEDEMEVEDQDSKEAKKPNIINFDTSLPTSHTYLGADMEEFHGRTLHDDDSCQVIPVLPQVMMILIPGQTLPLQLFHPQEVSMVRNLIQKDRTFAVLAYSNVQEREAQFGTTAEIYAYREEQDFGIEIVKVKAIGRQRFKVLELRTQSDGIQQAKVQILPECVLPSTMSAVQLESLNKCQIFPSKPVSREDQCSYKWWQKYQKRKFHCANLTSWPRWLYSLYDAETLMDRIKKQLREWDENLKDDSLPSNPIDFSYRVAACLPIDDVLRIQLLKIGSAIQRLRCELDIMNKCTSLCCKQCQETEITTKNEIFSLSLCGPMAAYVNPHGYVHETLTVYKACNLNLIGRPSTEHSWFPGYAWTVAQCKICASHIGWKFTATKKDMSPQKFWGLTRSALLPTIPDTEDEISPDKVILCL

SMILES | Activity [%]
CNC(=O)c1cnc(Nc2ccc(C(=O)NCCCNc3cccc4c3C(=O)N(C3CCC(=O)NC3=O)C4=O)cn2)cc1Nc1cccc(-c2ncc(F)cn2)c1OC (stereo unspecified) | 18
CNC(=O)c1cnc(Nc2ccc(C(=O)NCCCCCCCCNc3cccc4c3C(=O)N(C3CCC(=O)NC3=O)C4=O)cn2)cc1Nc1cccc(-c2ncc(F)cn2)c1OC (stereo unspecified) | 72
CNC(=O)c1cnc(Nc2ccc(C(=O)NCCOCCNc3cccc4c3C(=O)N(C3CCC(=O)NC3=O)C4=O)cn2)cc1Nc1cccc(-c2ncc(F)cn2)c1OC (stereo unspecified) | 32
CNC(=O)c1cnc(Nc2ccc(C(=O)NCCNc3cccc4c3C(=O)N(C3CCC(=O)NC3=O)C4=O)cn2)cc1Nc1cccc(-c2ncc(F)cn2)c1OC (stereo unspecified) | 12
CNC(=O)c1cnc(Nc2ccc(C(=O)NCCCCNc3ccc4c(c3)C(=O)N(C3CCC(=O)NC3=O)C4=O)cn2)cc1Nc1cccc(-c2ncc(F)cn2)c1OC (stereo unspecified) | 42
CNC(=O)c1cnc(Nc2ccc(C(=O)NCCCCCNc3cccc4c3C(=O)N(C3CCC(=O)NC3=O)C4=O)cn2)cc1Nc1cccc(-c2ncc(F)cn2)c1OC (stereo unspecified) | 86
CNC(=O)c1cnc(Nc2ccc(C(=O)NCCCCCCNc3ccc4c(c3)C(=O)N(C3CCC(=O)NC3=O)C4=O)cn2)cc1Nc1cccc(-c2ncc(F)cn2)c1OC (stereo unspecified) | 46
CNC(=O)c1cnc(Nc2ccc(C(=O)NCCCCCCNc3cccc4c3C(=O)N(C3CCC(=O)NC3=O)C4=O)cn2)cc1Nc1cccc(-c2ncc(F)cn2)c1OC (stereo unspecified) | 48
CNC(=O)c1cnc(Nc2ccc(C(=O)NCCOCCOCCNc3cccc4c3C(=O)N(C3CCC(=O)NC3=O)C4=O)cn2)cc1Nc1cccc(-c2ncc(F)cn2)c1OC (stereo unspecified) | 5
CNC(=O)c1cnc(Nc2ccc(C(=O)NCCCCNc3cccc4c3C(=O)N(C3CCC(=O)NC3=O)C4=O)cn2)cc1Nc1cccc(-c2ncc(F)cn2)c1OC (stereo unspecified) | 26

Target: T1, Protein cereblon/Non-receptor tyrosine-protein kinase TYK2
Assay: PROTAC activity at CRBN/TYK2 in human Jurkat cells assessed as induction of degradation of TYK2 at 100 ug/ml measured after 10 hrs by Western blot analysis
Format: cell-based
Details: dose 100.0 µg/ml
Target sequence in this assay (P29597 whole entry, looked up): as the sequence (P29597 whole entry, looked up) above
Target sequence in this assay (Q96SW2 whole entry, looked up): as the sequence (Q96SW2 whole entry, looked up) above

SMILES | Activity
C[C@@H]1C[C@@H]([C@H](O)CC2CC(=O)NC(=O)C2)C(=O)[C@@H](C)C1 | Active

Target: T1, Protein cereblon/Non-receptor tyrosine-protein kinase TYK2
Assay: PROTAC activity at CRBN/TYK2 in human Jurkat cells assessed as induction of degradation of TYK2 measured after 10 hrs by Western blot analysis
Format: cell-based
Details: not given
Target sequence in this assay (P29597 whole entry): as the sequence (P29597 whole entry, looked up) above
Target sequence in this assay (Q96SW2 whole entry): as the sequence (Q96SW2 whole entry, looked up) above

SMILES | DC50 [nM]
CNC(=O)c1cnc(Nc2ccc(C(=O)NCCCCCNc3cccc4c3C(=O)N(C3CCC(=O)NC3=O)C4=O)cn2)cc1Nc1cccc(-c2ncc(F)cn2)c1OC (stereo unspecified) | 0.43

Tested on: not listed separately
Assay: Apparent permeability of the compound in human Caco-2 cells at 10 uM measured up to 120 min by LC-MS/MS analysis
Format: ADME, cell-based
Details: not given

SMILES | Papp at 2 h, 10 µM [×10⁻⁶ cm/s]
CNC(=O)c1cnc(NC2CCN(CC3CCN(c4ccc5c(c4)C(=O)N(C4CCC(=O)NC4=O)C5=O)CC3)CC2)cc1Nc1cccc(-c2ncc(F)cn2)c1OC (stereo unspecified) | < 0.1

Target: T1, Protein cereblon/Non-receptor tyrosine-protein kinase TYK2
Assay: PROTAC activity at CRBN/TYK2 in human Jurkat cells assessed as induction of degradation of TYK2 at 100 nM measured after 10 hrs by Western blot analysis relative to control
Format: cell-based
Details: not given
Target sequence in this assay (P29597 whole entry, looked up): as the sequence (P29597 whole entry, looked up) above
Target sequence in this assay (Q96SW2 whole entry, looked up): as the sequence (Q96SW2 whole entry, looked up) above

SMILES | Activity [%]
CNC(=O)c1cnc(Nc2ccc(C(=O)NCCCNc3cccc4c3C(=O)N(C3CCC(=O)NC3=O)C4=O)cn2)cc1Nc1cccc(-c2ncc(F)cn2)c1OC (stereo unspecified) | 21
CNC(=O)c1cnc(Nc2ccc(C(=O)NCCCCCCCCNc3cccc4c3C(=O)N(C3CCC(=O)NC3=O)C4=O)cn2)cc1Nc1cccc(-c2ncc(F)cn2)c1OC (stereo unspecified) | 74
CNC(=O)c1cnc(Nc2ccc(C(=O)NCCOCCNc3cccc4c3C(=O)N(C3CCC(=O)NC3=O)C4=O)cn2)cc1Nc1cccc(-c2ncc(F)cn2)c1OC (stereo unspecified) | 66
CNC(=O)c1cnc(Nc2ccc(C(=O)NCCNc3cccc4c3C(=O)N(C3CCC(=O)NC3=O)C4=O)cn2)cc1Nc1cccc(-c2ncc(F)cn2)c1OC (stereo unspecified) | 15
CNC(=O)c1cnc(Nc2ccc(C(=O)NCCCCNc3ccc4c(c3)C(=O)N(C3CCC(=O)NC3=O)C4=O)cn2)cc1Nc1cccc(-c2ncc(F)cn2)c1OC (stereo unspecified) | 48
CNC(=O)c1cnc(Nc2ccc(C(=O)NCCCCCNc3cccc4c3C(=O)N(C3CCC(=O)NC3=O)C4=O)cn2)cc1Nc1cccc(-c2ncc(F)cn2)c1OC (stereo unspecified) | 94
CNC(=O)c1cnc(Nc2ccc(C(=O)NCCCCCCNc3ccc4c(c3)C(=O)N(C3CCC(=O)NC3=O)C4=O)cn2)cc1Nc1cccc(-c2ncc(F)cn2)c1OC (stereo unspecified) | 62
CNC(=O)c1cnc(Nc2ccc(C(=O)NCCCCCCNc3cccc4c3C(=O)N(C3CCC(=O)NC3=O)C4=O)cn2)cc1Nc1cccc(-c2ncc(F)cn2)c1OC (stereo unspecified) | 69
CNC(=O)c1cnc(Nc2ccc(C(=O)NCCOCCOCCNc3cccc4c3C(=O)N(C3CCC(=O)NC3=O)C4=O)cn2)cc1Nc1cccc(-c2ncc(F)cn2)c1OC (stereo unspecified) | 56
CNC(=O)c1cnc(Nc2ccc(C(=O)NCCCCNc3cccc4c3C(=O)N(C3CCC(=O)NC3=O)C4=O)cn2)cc1Nc1cccc(-c2ncc(F)cn2)c1OC (stereo unspecified) | 82

From ChEMBL document CHEMBL6109122 (J Med Chem, 2025)
